Assay [1] deals with Protein cereblon/Bromodomain-containing protein 2 (Homo sapiens, UniProt P25440+Q96SW2). In words: PROTAC activity at CRBN/BRD2 in human MV4-11 cells assessed as degradation of BRD2 protein incubated for 4 hrs by Western blotting assay. In kind it is cell-based. (In general: A western blot detects proteins with antibodies after separation by electrophoresis.)
The target of assay [2] is Protein cereblon/Bromodomain-containing protein 3 (Homo sapiens, UniProt Q15059+Q96SW2). The experiment in a line: PROTAC activity at CRBN/BRD3 in human MV4-11 cells assessed as degradation of BRD3 protein incubated for 4 hrs by Western blotting assay. In kind it is cell-based.
For assay [3], the target named is T1, Cereblon/Ikaros (Homo sapiens, UniProt Q96SW2+Q13422). The experiment in a line: PROTAC activity at CRBN/IKZF1 in human MV4-11 cells assessed as maximum degradation of protein at 0.1 uM incubated for 18 hrs by Western blotting analysis relative to control. Type of assay: cell-based.
Assay [4] has as its target von Hippel-Lindau disease tumor suppressor/WD repeat-containing protein 5 (Homo sapiens, UniProt P61964+P40337). In words: PROTAC activity at VHL/WDR5 in human MIA PaCa-2 cells assessed as degradation of WDR5 protein incubated for 18 hrs by Western blotting analysis. In kind it is cell-based.
In assay [5] the target is T1, Cereblon/Ikaros. The experiment in a line: PROTAC activity at CRBN/IKZF1 in human MV4-11 cells assessed as degradation of IKZF1 protein incubated for 18 hrs by Western blotting analysis. In kind it is cell-based.
In assay [6] the test system is OVCAR-8. In words: Antiproliferative activity against human OVCAR-8 cells assessed as inhibition of growth rate measured for 72 hrs. Type of assay: functional.
Assay [7] has as its target T2, von Hippel-Lindau disease tumor suppressor/Bromodomain-containing protein 2 (Homo sapiens, UniProt P25440+P40337). The experiment in a line: PROTAC activity at VHL/BRD2 in human 22Rv1 cells assessed as degradation of BRD2 incubated for 16 hrs by Western blot analysis. Type of assay: cell-based.
Assay [8] has as its system CWR22R. In words: Antiproliferative activity against human 22Rv1 cells assessed as reduction in cell viability incubated for 72 hrs by Celltiter- Glo assay. The settings on record: 22Rv1, 72 h. In kind it is functional, cell-based.
The nature of assay [9]: Antiproliferative activity against human LNCaP-95 cells assessed as reduction in cell viability incubated for 72 hrs by Celltiter- Glo assay. In kind it is functional, cell-based. The settings on record: LNCaP-95, 72 h.
The subject of assay [10] is VCaP. In words: Antiproliferative activity against human VCaP cells assessed as reduction in cell viability incubated for 72 hrs by Celltiter- Glo assay. Type of assay: functional, cell-based.
In assay [11] the target is von Hippel-Lindau disease tumor suppressor/Bromodomain-containing protein 4 (Homo sapiens) (UniProt O60885+P40337). In words: PROTAC activity at human VHL/BRD4 in human HT-1080 cells assessed as maximum degradation of BRD4 at 0.2 uM incubated for 24 hrs by Western blot analysis relative to control. Type of assay: cell-based.
For assay [12], the target named is Protein cereblon/Cyclin-dependent kinase 6 (Homo sapiens, UniProt Q00534+Q96SW2). The experiment in a line: Protac activity at CRBN/CDK6 in human MDA-MB-231 cells assessed as induction of CDK6 degradation measured after 18 hrs by Western blot analysis. Type of assay: cell-based.
For assay [13], the target named is Protein cereblon/Cyclin-dependent kinase 4 (Homo sapiens, UniProt P11802+Q96SW2). The experiment in a line: Protac activity at CRBN/CDK4 in human MDA-MB-231 cells assessed as induction of CDK4 degradation measured after 6 hrs by Western blot analysis. Type of assay: cell-based.
Assay [14] deals with T3, Protein cereblon/Bromodomain-containing protein 4 (Homo sapiens, UniProt O60885+Q96SW2). In words: PROTAC activity at CRBN/BRD4 (unknown origin) expressed in HEK293 cells assessed as induction of BRD4 degradation measured after 4 hrs by Western blot analysis. In kind it is cell-based.
For assay [15], the target named is T3, Protein cereblon/Bromodomain-containing protein 4. In words: PROTAC activity at CRBN/BRD4 (unknown origin) expressed in HEK293 cells assessed as induction of BRD4 degradation incubated for 6 hrs by Western blot analysis. Type of assay: cell-based.
Assay [16] concerns RKO. The experiment in a line: Antiproliferative activity against human RKO cells assessed as reduction in cell viability by Celltiter-glo reagent based analysis. Type of assay: functional.
Assay [17] has as its target T2, von Hippel-Lindau disease tumor suppressor/Bromodomain-containing protein 2. The experiment in a line: PROTAC activity at human VHL/BRD2 in human HeLa cells assessed as degradation of BRD2 incubated for 16 hrs by Western blot analysis. In kind it is cell-based.
Assay [18] addresses von Hippel-Lindau disease tumor suppressor/Bcl-2-like protein 1 (Homo sapiens, UniProt Q07817+P40337). The experiment in a line: PROTAC activity at VHL/BCL-XL in human Jurkat cells assessed as induction of BCL-XL degradation incubated for 16 hrs by immunoblot analysis. In kind it is cell-based.
In assay [19] the target is T4, Protein cereblon/Tyrosine-protein phosphatase non-receptor type 1 (Homo sapiens, UniProt P18031+Q96SW2). In words: PROTAC activity at PTP1B/CRBN human HepG2 cells assessed as protein degradation incubated for 24 hrs by Western blot analysis. Type of assay: cell-based.
The target of assay [20] is T4, Protein cereblon/Tyrosine-protein phosphatase non-receptor type 1. The experiment in a line: PROTAC activity at PTP1B/CRBN human HepG2 cells assessed as protein degradation incubated for 16 hrs by Western blot analysis. Type of assay: cell-based.
The nature of assay [21]: Antiproliferative activity against human MINO cells assessed as reduction in cell viability incubated fro 72 hrs by Celltiter-glo reagent based analysis. Type of assay: functional. In general terms: ATP-based viability assays read luminescence as a measure of living cells.
Assay [22] deals with Protein cereblon/CREB-binding protein (Homo sapiens) (UniProt Q92793+Q96SW2). In words: PROTAC activity at CRBN/CBP in human MV4-11 cells assessed as induction of protein degradation by measuring maximal degradation at 250 nM incubated for 24 hrs by Western blotting analysis relative to control. Type of assay: cell-based.

Starred links: 1 amine or outer side, 2 acyl side, 3 side chain; linkers in the order of their positions; H or OH if unused. Non-standard residues stand in square brackets, D forms with d. Residues, ends and D or L forms follow the SMILES beside them. *: point of attachment. X1 = O=C([C@H](Cc1ccc(C(F)(F)P(=O)(O)O)cc1)O[*:1])[*:2]; NHCH2(1,3-C6H4)CH2CO = O=C(Cc1cccc(CN[*:1])c1)[*:2]; Phenylacetyl(4-OH,3-OMe) = COc1cc(CC(=O)*)ccc1O; Benzoyl(3-Br,4-Me) = Cc1ccc(C(=O)*)cc1Br; X2 = Cc1ncsc1-c1ccc([C@@H](C)N*)cc1; Hyp = O=C(O)[C@@H]1C[C@@H](O)CN1; Tle = CC(C)(C)[C@H](N)C(=O)O

This note sets out measurements from ChEMBL document CHEMBL6127086, “Recent advances in dual PROTACs degrader strategies for disease treatment” (Eur J Med Chem, 2024).

T2 sequence (P25440 whole entry): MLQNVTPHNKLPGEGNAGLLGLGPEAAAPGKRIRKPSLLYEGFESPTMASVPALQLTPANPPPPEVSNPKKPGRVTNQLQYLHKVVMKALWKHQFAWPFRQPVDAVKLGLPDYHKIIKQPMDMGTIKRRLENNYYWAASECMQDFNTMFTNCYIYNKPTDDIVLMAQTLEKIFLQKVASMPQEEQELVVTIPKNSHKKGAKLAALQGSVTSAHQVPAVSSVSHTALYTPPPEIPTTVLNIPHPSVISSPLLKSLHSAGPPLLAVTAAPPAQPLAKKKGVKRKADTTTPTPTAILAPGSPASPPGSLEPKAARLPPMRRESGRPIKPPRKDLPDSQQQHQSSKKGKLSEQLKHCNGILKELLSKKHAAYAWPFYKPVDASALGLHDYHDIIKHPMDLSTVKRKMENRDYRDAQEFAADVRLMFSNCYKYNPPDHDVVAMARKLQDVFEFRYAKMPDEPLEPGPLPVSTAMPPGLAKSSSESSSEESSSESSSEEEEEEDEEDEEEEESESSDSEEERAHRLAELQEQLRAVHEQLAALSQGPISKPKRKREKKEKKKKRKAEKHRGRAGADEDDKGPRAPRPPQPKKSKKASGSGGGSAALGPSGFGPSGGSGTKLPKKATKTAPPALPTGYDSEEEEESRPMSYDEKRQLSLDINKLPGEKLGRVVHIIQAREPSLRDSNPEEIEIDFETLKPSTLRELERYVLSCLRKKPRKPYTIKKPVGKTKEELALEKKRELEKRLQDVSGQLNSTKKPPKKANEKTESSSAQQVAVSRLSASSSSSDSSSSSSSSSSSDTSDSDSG
T2 sequence (P40337 whole entry): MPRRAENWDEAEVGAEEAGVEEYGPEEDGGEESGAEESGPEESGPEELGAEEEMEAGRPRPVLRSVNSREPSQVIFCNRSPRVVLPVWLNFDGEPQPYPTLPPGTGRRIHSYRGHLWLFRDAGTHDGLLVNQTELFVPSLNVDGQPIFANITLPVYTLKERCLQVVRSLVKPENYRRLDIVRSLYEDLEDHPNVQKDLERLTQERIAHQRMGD
T3 sequence (Q96SW2 whole entry, looked up, other chains not shown): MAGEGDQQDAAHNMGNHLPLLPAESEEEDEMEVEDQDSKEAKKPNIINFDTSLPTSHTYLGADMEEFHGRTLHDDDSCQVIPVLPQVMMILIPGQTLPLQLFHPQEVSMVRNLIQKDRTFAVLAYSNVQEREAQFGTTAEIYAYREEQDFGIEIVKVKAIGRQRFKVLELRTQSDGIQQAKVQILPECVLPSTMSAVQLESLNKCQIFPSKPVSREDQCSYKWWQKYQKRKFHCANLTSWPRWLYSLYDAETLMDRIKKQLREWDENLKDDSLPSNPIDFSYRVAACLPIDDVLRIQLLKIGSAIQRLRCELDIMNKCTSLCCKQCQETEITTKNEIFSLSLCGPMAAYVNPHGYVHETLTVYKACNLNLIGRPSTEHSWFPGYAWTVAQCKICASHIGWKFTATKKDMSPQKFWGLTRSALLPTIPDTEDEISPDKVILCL
T4 sequence (P18031 whole entry): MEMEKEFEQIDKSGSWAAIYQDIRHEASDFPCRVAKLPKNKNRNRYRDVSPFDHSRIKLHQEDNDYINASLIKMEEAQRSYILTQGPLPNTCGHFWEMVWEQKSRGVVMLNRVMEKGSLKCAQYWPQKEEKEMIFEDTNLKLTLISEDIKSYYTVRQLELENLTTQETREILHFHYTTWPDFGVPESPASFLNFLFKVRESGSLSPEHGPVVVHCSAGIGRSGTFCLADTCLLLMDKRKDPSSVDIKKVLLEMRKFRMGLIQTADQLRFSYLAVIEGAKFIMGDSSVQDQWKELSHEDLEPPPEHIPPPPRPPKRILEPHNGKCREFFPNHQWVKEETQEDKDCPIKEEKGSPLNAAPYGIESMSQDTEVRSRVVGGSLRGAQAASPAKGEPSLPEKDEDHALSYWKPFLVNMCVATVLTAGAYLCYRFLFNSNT
T4 sequence (Q96SW2 whole entry): as the sequence (Q96SW2 whole entry, looked up, other chains not shown) above
Sequence of Protein cereblon/Cyclin-dependent kinase 4 (P11802 whole entry): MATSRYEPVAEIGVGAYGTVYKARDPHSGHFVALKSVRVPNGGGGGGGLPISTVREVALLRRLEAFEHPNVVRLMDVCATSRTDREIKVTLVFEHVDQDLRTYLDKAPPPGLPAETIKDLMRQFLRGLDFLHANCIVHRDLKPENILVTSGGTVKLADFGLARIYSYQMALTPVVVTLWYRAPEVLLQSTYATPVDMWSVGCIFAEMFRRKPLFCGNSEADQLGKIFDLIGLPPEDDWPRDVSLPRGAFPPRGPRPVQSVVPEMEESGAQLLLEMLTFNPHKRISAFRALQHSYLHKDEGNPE
Sequence of Protein cereblon/Cyclin-dependent kinase 4 (Q96SW2 whole entry): as the sequence (Q96SW2 whole entry, looked up, other chains not shown) above
Sequence of Protein cereblon/Bromodomain-containing protein 2 (P25440 whole entry): as the sequence (P25440 whole entry) above
Sequence of Protein cereblon/Bromodomain-containing protein 2 (Q96SW2 whole entry): as the sequence (Q96SW2 whole entry, looked up, other chains not shown) above
Sequence of von Hippel-Lindau disease tumor suppressor/Bcl-2-like protein 1 (Q07817 whole entry): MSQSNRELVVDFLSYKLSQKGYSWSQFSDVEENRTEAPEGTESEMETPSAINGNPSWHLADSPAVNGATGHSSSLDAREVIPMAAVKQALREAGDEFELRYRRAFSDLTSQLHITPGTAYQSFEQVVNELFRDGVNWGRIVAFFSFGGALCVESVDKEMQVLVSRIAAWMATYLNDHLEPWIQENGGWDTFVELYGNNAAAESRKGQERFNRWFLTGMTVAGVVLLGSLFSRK
Sequence of von Hippel-Lindau disease tumor suppressor/Bcl-2-like protein 1 (P40337 whole entry): as the sequence (P40337 whole entry) above
Sequence of von Hippel-Lindau disease tumor suppressor/Bromodomain-containing protein 4 (Homo sapiens) (P40337 whole entry, looked up, other chains not shown): as the sequence (P40337 whole entry) above
T1 sequence (Q96SW2 whole entry): as the sequence (Q96SW2 whole entry, looked up, other chains not shown) above
T1 sequence (Q13422 whole entry): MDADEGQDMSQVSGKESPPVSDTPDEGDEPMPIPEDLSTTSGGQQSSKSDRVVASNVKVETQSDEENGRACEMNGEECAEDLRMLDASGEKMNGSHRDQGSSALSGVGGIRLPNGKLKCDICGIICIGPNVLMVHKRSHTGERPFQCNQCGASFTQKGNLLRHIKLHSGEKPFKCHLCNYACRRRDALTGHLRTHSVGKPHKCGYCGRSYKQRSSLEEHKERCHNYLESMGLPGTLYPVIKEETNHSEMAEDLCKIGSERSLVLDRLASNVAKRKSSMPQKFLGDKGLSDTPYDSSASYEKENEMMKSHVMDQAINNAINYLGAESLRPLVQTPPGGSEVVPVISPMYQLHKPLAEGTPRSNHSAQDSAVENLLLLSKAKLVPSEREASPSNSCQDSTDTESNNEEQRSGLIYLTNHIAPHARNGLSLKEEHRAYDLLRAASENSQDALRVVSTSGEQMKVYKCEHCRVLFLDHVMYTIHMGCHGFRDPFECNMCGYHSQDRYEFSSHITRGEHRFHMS
Sequence of Protein cereblon/Cyclin-dependent kinase 6 (Q00534 whole entry): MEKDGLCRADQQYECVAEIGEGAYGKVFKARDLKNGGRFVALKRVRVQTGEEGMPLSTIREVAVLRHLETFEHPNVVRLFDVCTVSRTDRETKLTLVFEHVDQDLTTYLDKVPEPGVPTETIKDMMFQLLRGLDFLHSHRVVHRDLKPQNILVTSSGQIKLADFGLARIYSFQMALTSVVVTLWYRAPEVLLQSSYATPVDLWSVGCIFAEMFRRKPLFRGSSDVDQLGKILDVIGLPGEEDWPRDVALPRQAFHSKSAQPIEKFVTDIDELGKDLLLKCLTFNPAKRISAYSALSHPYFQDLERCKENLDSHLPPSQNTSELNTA
Sequence of Protein cereblon/Cyclin-dependent kinase 6 (Q96SW2 whole entry): as the sequence (Q96SW2 whole entry, looked up, other chains not shown) above

As a reminder, the DC50 is the concentration giving 50% degradation. Take `Cc1ncsc1-c1ccc(CNC(=O)[C@@H]2C[C@@H](O)CN2C(=O)[C@@H](NC(=O)OCC(C)(COCCOCCOCCNC(=O)C[C@@H]2N=C(c3ccc(Cl)cc3)c3c(sc(C)c3C)-n3c(C)nnc32)COCCOCCOCCNC(=O)C[C@@H]2N=C(c3ccc(Cl)cc3)c3c(sc(C)c3C)-n3c(C)nnc32)C(C)(C)C)cc1`: the DC50 amounted to 1.1 nM in assay [1] and 3.3 nM in assay [2].
In general, Emax refers to the greatest response seen or fitted, relative to the assay's reference. With `CN1CCN(c2ccc(-c3cccc(CN4CCN(CCNC(=O)CCCCCCCNc5cccc6c5C(=O)N(C5CCC(=O)NC5=O)C6=O)CC4)c3)cc2NC(=O)c2c[nH]c(=O)cc2C(F)(F)F)CC1` (configuration not stated), in assay [3], the Emax is 90%. Besides, the DC50 in assay [4] is 42 nM; in assay [5] it was 500 nM.
For `Cc1cc(S(=O)(=O)NCCOCCOCCOCCOCCNc2cccc3c2C(=O)N(C2CCC(=O)NC2=O)C3=O)ccc1Nc1ncc(Br)c(Nc2cccc(F)c2C(N)=O)n1` (configuration not stated), the GR50 in assay [6] is recorded as 33.1 nM.
Usually IC50 stands for the concentration needed to halve the response being measured. Turning to `Cc1ncsc1-c1ccc([C@H](C)NC(=O)[C@@H]2C[C@@H](O)CN2C(=O)[C@@H](NC(=O)COCCCOCCNC(=O)C[C@@H]2N=C(c3ccc(Cl)cc3)c3c(sc(C)c3C)-n3c(C)nnc32)C(C)(C)C)cc1`, the half-maximal degradation concentration (DC50) in assay [7] is less than 5 nM. The IC50 in assay [8], in assay [9] and in [10] was less than 1 nM each time.
On to `Cc1ncsc1-c1ccc(NC(=O)[C@@H]2C[C@@H](O)CN2C(=O)[C@@H](NC(=O)COCCOCCOc2cc(OCC(=O)OC(C)(C)C)ccc2NC(=O)C[C@@H]2N=C(c3ccc(Cl)cc3)c3c(sc(C)c3C)-n3c(C)nnc32)C(C)(C)C)cc1`, for which, in assay [11], the Emax came out at 93%.
Take `CN(C)C(=O)c1cc2cnc(Nc3ccc(N4CCN(Cc5cn(CCCCCC(=O)Nc6cccc7c6C(=O)N(C6CCC(=O)NC6=O)C7=O)nn5)CC4)cn3)nc2n1C1CCCC1` (configuration not stated): the 50% degradation concentration (DC50) in [12] is 300 nM; in assay [13] it was 97 nM.
By EC50 is commonly meant the concentration giving half of the maximal effect. As for `Cc1ncsc1-c1ccc([C@H](C)NC(=O)[C@@H]2C[C@@H](O)CN2C(=O)[C@@H](NC(=O)OCC(C)(COCCOCCOCCNC(=O)C[C@@H]2N=C(c3ccc(Cl)cc3)c3c(sc(C)c3C)-n3c(C)nnc32)COCCOCCOCCNc2cc3c(cc2F)C(=O)N(C2CCC(=O)NC2=O)C3=O)C(C)(C)C)cc1` (some centres not stated), the DC50 in [14] was 2.3 nM; in assay [15], 2.1 nM; in [17], 15 nM. The 50% effective concentration (EC50) in [16] was 111 nM.
Regarding `Cc1ncsc1-c1ccc([C@H](C)NC(=O)[C@@H]2C[C@@H](O)CN2C(=O)[C@@H](NC(=O)CN2CCN(CC(=O)N3CCN(C[C@]4(C)CCC(c5ccc(Cl)cc5)=C(CN5CCN(c6ccc(C(=O)NS(=O)(=O)c7ccc(N[C@H](CCN8C[C@H]9C[C@@H]8CO9)CSc8ccccc8)c(S(=O)(=O)C(F)(F)F)c7)cc6)CC5)C4)CC3)CC2)C(C)(C)C)cc1`, the DC50 in assay [18] came to 0.6 nM.
Take `COc1cc(CC(=O)N[C@@H](Cc2ccccc2)C(=O)O[C@@H](Cc2ccc(C(F)(F)P(=O)(O)O)cc2)C(=O)N[C@@H](CCCCNC(=O)c2ccc(C)c(Br)c2)C(=O)NCc2cccc(CC(=O)N[C@H](C(=O)N3C[C@H](O)C[C@H]3C(=O)N[C@H](C)c3ccc(-c4scnc4C)cc3)C(C)(C)C)c2)ccc1O` ({Phenylacetyl(4-OH,3-OMe)}-F[X1]K(Benzoyl(3-Br,4-Me))[NHCH2(1,3-C6H4)CH2CO][Tle][Hyp]-X2): the DC50 in [19] is 8.7 nM; in assay [20], 14.1 nM.
In the case of `Cc1sc2c(c1C)C(c1ccc(Cl)cc1)=N[C@@H](CC(=O)Nc1ccc(OCCOCCOCCOCCNc3cccc4c3C(=O)N(C3CCC(=O)NC3=O)C4=O)cc1)c1nnc(C)n1-2` (some centres not stated), the IC50 in [21] was 14.5 nM.
For the molecule `CNC(=O)N1CCc2c(c(N3CCCc4cc(-c5cnn(C)c5)c(C(F)F)cc43)nn2C2CCN(C(=O)CCOCCOCCOCCOCCNc3ccc4c(c3)C(=O)N(C3CCC(=O)NC3=O)C4=O)CC2)C1` (configuration not stated), in assay [22], the Emax is greater than 100%.
